The text below walks through data of patent US20160095823A1, “METHODS OF USING PROPOFOL DERIVATIVES FOR ANALGESIA” (priority 2005, published 2016).

Where “and” joins values, the source holds several entries; their conditions need not be identical. Equal values may be shown once.

Experiment [1] addresses T1, α-subunits of glycine receptors from the rat coexpressed with human β subunits (Rattus norvegicus, UniProt P07727).
T1 construct: expressed in transfected cells; host or cells: HEK293
In words: Example 2: direct activation in the absence of glycine, whole-cell mode, HEK293 cells. Format: cell-based. From the text:
(§1) Small cells were studied in the whole-cell mode using an ultra-fast application device.
The solid line is a Hill fit to the data with the indicated parameters. Note that the direct activating effect is observed at 1000-fold higher concentrations than the co-activating effect.

Experiment [2] deals with T2, recombinant glycine alpha1 receptors (Homo sapiens, UniProt P23415).
T2 construct: expressed in transfected cells; host or cells: Xenopus oocytes
T2 sequence (P23415 29-457): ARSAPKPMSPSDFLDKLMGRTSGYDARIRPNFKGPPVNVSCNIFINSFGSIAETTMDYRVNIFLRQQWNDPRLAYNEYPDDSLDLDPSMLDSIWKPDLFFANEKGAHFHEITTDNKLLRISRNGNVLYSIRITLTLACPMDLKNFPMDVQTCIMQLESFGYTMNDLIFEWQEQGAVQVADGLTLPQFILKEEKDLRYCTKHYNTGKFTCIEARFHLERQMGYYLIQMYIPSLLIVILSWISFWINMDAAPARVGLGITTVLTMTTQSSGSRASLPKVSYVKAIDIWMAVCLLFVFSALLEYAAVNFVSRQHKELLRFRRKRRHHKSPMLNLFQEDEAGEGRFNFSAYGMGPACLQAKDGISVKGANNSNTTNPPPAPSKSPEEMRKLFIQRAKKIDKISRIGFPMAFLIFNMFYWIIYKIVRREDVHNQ
In words: Glycine (EC10)-evoked current in Xenopus oocytes. Type of experiment: cell-based. The following applies: 100 nM, preliminary experiments.

For the next experiment, the system named is native glycine receptors. Nature of the experiment: Rat in vitro spinal cord preparation (sIPSCs, tonic conductance). The following applies: 100 nM-1 μM, preliminary experiments.
For experiment [3], the system named is Xenopus laevis embryos. In words: Fictive swimming in immobilized stage 37/8 Xenopus embryos (ventral root recording). Format: in vivo. From the text: The rhythmic swimming behaviour of Xenopus laevis frog embryos (FIG. 22A) is recognised as a powerful model system for exploring spinal neural networks controlling locomotion. The intensity, frequency and duration of swimming episodes are regulated by two inhibitory pathways: a descending brainstem GABA pathway that turns off swimming and a spinal glycinergic pathway that controls the cycle periods attained during swimming.
In the present study Xenopus embryos were used to test the action of 4-chloropropofol (a compound according to the first aspect of the invention) upon fictive swimming in immobilized embryos.
Stage 37/8 embryos (FIG. 22Ai) were immobilized in α-bungarotoxin, secured on a Sylgard block mounted in a recording chamber and recirculated with frog ringer. The flank skin on the left and right sides of the trunk was removed to expose the inter-myotomal clefts wherein lie the ventral roots and then three glass suction electrodes were positioned at rostral and caudal levels on the left side and rostrally on the right side (FIG. 22Aiii) to record “fictive” swimming (FIG. 22B). Swimming activity was evoked by a brief 1 msec current pulse applied to the tail skin via a fourth glass suction electrode. Drugs were applied directly to the bath.

For experiment [4], the target named is T1, α-subunits of glycine receptors from the rat coexpressed with human β subunits. In words: Example 2: co-activation of the current response to 10 μM glycine, whole-cell mode, HEK293 cells. Type of experiment: cell-based. The procedure: as §1
The results presented in FIG. 10 were corroborated by repeating the tests carried out to provide the data shown in FIG. 10 to provide the data shown in FIG. 11. […] Note from FIGS. 10 and 11 that the co-activating effect is observed in the concentration range between […]. The co-activating effect is overridden by inhibitory effects at higher concentrations (≧1000 μM). […] Small cells were studied in the whole-cell mode using an ultra-fast application device.

Experiment [5] deals with Xenopus laevis embryos. As to conditions: cited from earlier work.
The subject of the next experiment is glycine receptors. As to conditions: reported; cited from earlier work.
The mark [6] stands for this setting: 10 μM in the presence of 1 μM strychnine.
Setting [7] is: 10 μM in the presence of 1 μM strychnine, pooled n=3.
[8] abbreviates: 10 μM in the presence of 40 μM bicuculline methiodide.
The mark [9] stands for this setting: wash after 10 μM in 1 μM strychnine.
[10] abbreviates: wash after 10 μM in 40 μM bicuculline methiodide.

T1 sequence (P07727 29-457): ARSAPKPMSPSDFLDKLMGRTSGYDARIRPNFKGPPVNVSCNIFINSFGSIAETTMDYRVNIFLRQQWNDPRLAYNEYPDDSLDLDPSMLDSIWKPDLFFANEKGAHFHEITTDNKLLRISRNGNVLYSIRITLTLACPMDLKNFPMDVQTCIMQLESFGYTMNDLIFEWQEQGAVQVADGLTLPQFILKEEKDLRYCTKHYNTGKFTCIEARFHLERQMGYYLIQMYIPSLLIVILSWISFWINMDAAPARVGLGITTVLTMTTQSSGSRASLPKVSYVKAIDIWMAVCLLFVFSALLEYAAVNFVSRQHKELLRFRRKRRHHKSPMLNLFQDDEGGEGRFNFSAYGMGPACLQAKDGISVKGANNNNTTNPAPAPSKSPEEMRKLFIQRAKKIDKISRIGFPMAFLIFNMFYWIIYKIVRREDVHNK
T1 sequence (P48167 23-497 partner): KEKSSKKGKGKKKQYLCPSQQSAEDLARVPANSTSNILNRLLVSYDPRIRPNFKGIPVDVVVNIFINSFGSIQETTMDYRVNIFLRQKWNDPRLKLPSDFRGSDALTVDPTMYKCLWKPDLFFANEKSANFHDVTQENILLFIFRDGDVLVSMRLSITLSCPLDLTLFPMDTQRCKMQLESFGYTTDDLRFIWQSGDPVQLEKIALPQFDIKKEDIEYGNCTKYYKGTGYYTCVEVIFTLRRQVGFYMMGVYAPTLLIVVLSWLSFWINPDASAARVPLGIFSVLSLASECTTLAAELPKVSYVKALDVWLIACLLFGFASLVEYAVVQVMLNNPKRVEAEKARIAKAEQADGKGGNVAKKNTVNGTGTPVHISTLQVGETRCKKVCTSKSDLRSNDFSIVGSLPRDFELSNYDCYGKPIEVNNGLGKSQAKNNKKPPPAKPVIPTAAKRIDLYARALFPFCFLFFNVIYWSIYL

With `CC(C)c1cc(Cl)cc(C(C)C)c1O` [4-chloropropofol, 4-chloro-2,6 di-isopropylphenol], the “EC50 values in the absence of the natural transmitter glycine” value in experiment [1] (Example 2) is listed as “single-digit micromolar range”. Further, the “direct activating effect, fold higher concentrations than the co-activating effect” value in experiment [1] (absence of glycine versus 10 μM glycine) is on record as 1000 fold. Moreover, the “effect on glycine (EC10)-evoked current” value in experiment [2] was “greatly enhanced”. For the same molecule, in the experiment with native glycine receptors, the “effect on sIPSCs (mediated by synaptic glycine receptors)” value is given as “prolongation” and the “effect on tonic conductance (mediated by extrasynaptic glycine receptors)” value is recorded as “increase”. Moreover, in the experiment on Xenopus laevis embryos [3] (10 μM alone), the “change in episode duration” value was “no significant change”, the “increase in left-right delay” value is 19% and the “increase in rostro-caudal delay” value amounted to 8%. Besides, the “increase in cycle periods” value in the experiment with Xenopus laevis embryos [3] (10 μM alone, pooled from 5 experiments) is “approximately 20%”. Also, in the experiment on Xenopus laevis embryos [3] (setting [6]), the “decrease in cycle periods at the end of the episode” value is on record as 3.4 ms, the “decrease in episode duration” value was found to be 17 s and the “increase in cycle periods at the start of the episode” value was 0.5 ms. For the same molecule, in the experiment with Xenopus laevis embryos [3] (setting [7]), the “decrease in cycle periods (not significant)” value is on record as “less than 2%”, the “effect on episode duration” value is on record as “little or no effect” and the “effect on left-right delay” value was “little or no effect”. In addition, in the experiment with Xenopus laevis embryos [3] (setting [8]), the “increase in cycle periods at the end of the episode” value came to 20.3 ms, the “increase in cycle periods at the start of the episode” value is 8.2 ms and the “increase in episode duration” value is 2 s. In addition, in the experiment on Xenopus laevis embryos [3] (20 minutes after addition of 10 μM 4-chloropropofol in bicuculline), the average cycle period stood at 61.3 ms. In addition, in the experiment on Xenopus laevis embryos [3] (after 10 μM alone), the “reversal of effect on cycle period by saline wash” value was 25-30%, the “reversal of effect on left-right delay by saline wash” value was found to be 22% and the “reversal of effect on rostro-caudal delay by saline wash” value was determined as 12%. In addition, in the experiment on Xenopus laevis embryos [3] (after bicuculline methiodide wash), the average cycle period is listed as 54.5 ms. The “effect at the GABAA receptor” value in the experiment on Xenopus laevis embryos [3] (at 1004 (so in the source)) is “negligible effect”. For the same molecule, the “influence on glycine receptors” value with Xenopus laevis embryos [3] (at the same concentration) was “powerful influence”. Also, in the experiment on Xenopus laevis embryos [3] (in the presence of 1 μM strychnine), the “change in rostro-caudal delay” value is reported as “small increase”. Also, the “change in rostro-caudal delay” value in the experiment on Xenopus laevis embryos [3] (in the presence of 40 μM bicuculline methiodide) is listed as “clear decrease”. Further, in the experiment on Xenopus laevis embryos [3] (setting [9]), the “decrease in cycle periods at the end of the episode by strychnine wash” value turned out to be 5.4 ms, the “decrease in cycle periods at the start of the episode by strychnine wash” value was 3 ms and the “increase in episode duration by strychnine wash” value was 2 s. The “further decrease in cycle periods by the strychnine wash” value in the experiment on Xenopus laevis embryos [3] (wash after 10 μM in 1 μM strychnine, pooled n=3) was 3% and 1%. In the experiment on Xenopus laevis embryos [3] (setting [10]), the “further increase of cycle periods at the end of the episode after bicuculline wash” value stood at 6.5 ms, the “reduction of cycle period at the start of the episode by bicuculline wash” value worked out at 2 ms and the “reduction of episode duration by bicuculline wash” value was 2 s. For the same molecule, the “EC50 values in the presence of glycine (co-activation)” value in experiment [4] (Example 2) is recorded as “single-digit nanomolar range”. Besides, in experiment [4] (co-applied with 10 μM glycine), the “concentrations above which peak current amplitude declines (probable open channel block)” value is “above 10 μM” and the “concentrations at which the co-activating effect is overridden by inhibitory effects” value was no less than 1000 µM. In addition, in experiment [4] (glycine receptors heterologously expressed in HEK293 cells), the “enhancement of glycine receptor function / EC50 for co-activation, fold lower concentrations than propofol” value stood at 1000 fold.
`CC(C)c1cccc(C(C)C)c1O` [propofol, 2,6-di-isopropylphenol]: the “concentration affecting swimming via potentiation of the glycine receptor” value in the experiment with Xenopus laevis embryos [5] (higher concentrations) was 40 µM. In addition, the “concentration inhibiting swimming via actions at the GABAA receptor” value with Xenopus laevis embryos [5] (low concentration) was 10 µM. Moreover, the “activation of glycine receptors, fold higher concentrations than EC50 at GABAA receptors” value in the experiment with glycine receptors was 10 fold.
